According to ChEMBL document CHEMBL1201862, “PubChem BioAssay data set” (2004):
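Results reflect a 48-hour exposure of cells in 96-well plates to compound at five concentrations. Here, GI50 denotes the concentration required for 50% inhibition of growth.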 Activity calls are given as the source filed them. No stated cut-off is given here; in the data, active = GI50 up to about 1.1 µM and inactive = higher. Bridge positions count the residues as written; N and C are the ends. Square brackets hold non-standard residues; d marks the D form. Peptide text beside a SMILES is read from it. * marks the point of attachment. Cbz = O=C(OCc1ccccc1)*; Dab = NCC[CH](N)C(=O)O; Bn = c1ccc(C*)cc1

How the values were obtained:
Test in all cases: inhibition of tumour cell growth, NCI panel, 48 h
[1] = test system: A498
[2] = test system: SK-MEL-28
[3] = test system: HCC 2998
[4] = test system: HT-29
[5] = test system: ACHN
[6] = test system: SN12C
[7] = test system: U-251
[8] = test system: SR
[9] = test system: OVCAR-8
[10] = test system: HOP-62
[11] = test system: IGROV-1
[12] = test system: EKVX
[13] = test system: HOP-92
[14] = test system: RXF 393
[15] = test system: KM12
[16] = test system: HL-60
[17] = test system: MDA-MB-435
[18] = test system: SW-620
[19] = test system: NCI-H226
[20] = test system: SF-268
[21] = test system: NCI/ADR-RES
[22] = test system: M14
[23] = test system: NCI-H522
[24] = test system: HCT-15
[25] = test system: SNB-75
[26] = test system: OVCAR-5
[27] = test system: UACC-62
[28] = test system: UO-31
[29] = test system: DU-145
[30] = test system: MDA-MB-231
[31] = test system: T47D
[32] = test system: MDA-N
[33] = test system: HCT-116
[34] = test system: SK-OV-3
[35] = test system: SK-MEL-5
[36] = test system: TK-10
[37] = test system: SNB-19
[38] = test system: CAKI-1
[39] = test system: NCI-H23
[40] = test system: COLO 205
[41] = test system: UACC-257
[42] = test system: Malme-3M
[43] = test system: NCI-H460
[44] = test system: A549
[45] = test system: MOLT-4
[46] = test system: MCF7
[47] = test system: SF-295
[48] = test system: PC-3
[49] = test system: OVCAR-4
[50] = test system: K562
[51] = test system: RPMI-8226
[52] = test system: SK-MEL-2
[53] = test system: SF-539
[54] = test system: CCRF-CEM
[55] = test system: Hs-578T
[56] = test system: 786-0
[57] = test system: LOX IMVI
[58] = test system: OVCAR-3

C[C@]12C[C@@H](OC(=O)[C@]1(C)O)[C@@H]([C@]1(O)CC[C@H]3[C@@H]4C[C@H]5O[C@]56C[C@H]5O[C@H]5C(=O)[C@]6(C)[C@H]4CC[C@@]31C)C2
GI50 [1]: > 50 µM (inactive) | GI50 [2]: > 50 µM (inactive) | GI50 [3]: > 50 µM (inactive) | GI50 [4]: > 50 µM (inactive) | GI50 [5]: > 50 µM (inactive) | GI50 [6]: > 50 µM (inactive) | GI50 [7]: > 50 µM (inactive) | GI50 [8]: 14.7 µM (inactive) | GI50 [9]: > 50 µM (inactive) | GI50 [10]: > 50 µM (inactive) | GI50 [11]: > 50 µM (inactive) | GI50 [12]: > 50 µM (inactive) | GI50 [13]: > 50 µM (inactive) | GI50 [14]: > 50 µM (inactive) | GI50 [15]: > 50 µM (inactive) | GI50 [16]: > 50 µM (inactive) | GI50 [17]: > 50 µM (inactive) | GI50 [18]: > 50 µM (inactive) | GI50 [19]: > 50 µM (inactive) | GI50 [20]: > 50 µM (inactive) | GI50 [21]: > 50 µM (inactive) | GI50 [22]: > 50 µM (inactive) | GI50 [23]: > 50 µM (inactive) | GI50 [24]: > 50 µM | GI50 [25]: 36 µM (inactive) | GI50 [26]: > 50 µM (inactive) | GI50 [27]: > 50 µM (inactive) | GI50 [28]: > 50 µM (inactive) | GI50 [29]: > 50 µM (inactive) | GI50 [30]: > 50 µM (inactive) | GI50 [31]: > 50 µM (inactive) | GI50 [32]: > 50 µM (inactive) | GI50 [33]: > 50 µM (inactive) | GI50 [34]: > 50 µM (inactive) | GI50 [35]: > 50 µM (inactive) | GI50 [36]: > 50 µM (inactive) | GI50 [37]: > 50 µM (inactive) | GI50 [38]: > 50 µM (inactive) | GI50 [39]: > 50 µM (inactive) | GI50 [40]: > 50 µM (inactive) | GI50 [41]: > 50 µM (inactive) | GI50 [42]: > 5 µM (inactive) | GI50 [43]: > 50 µM (inactive) | GI50 [44]: > 50 µM (inactive) | GI50 [45]: > 50 µM (inactive) | GI50 [46]: > 50 µM (inactive) | GI50 [47]: > 50 µM (inactive) | GI50 [48]: > 50 µM (inactive) | GI50 [49]: 27.5 µM (inactive) | GI50 [50]: > 50 µM (inactive) | GI50 [51]: > 50 µM (inactive) | GI50 [52]: > 50 µM (inactive) | GI50 [53]: > 50 µM (inactive) | GI50 [54]: > 50 µM (inactive) | GI50 [55]: > 50 µM (inactive) | GI50 [56]: > 50 µM (inactive)

CC(C)CC1NC(=O)C(Cc2ccccc2)NC(=O)C(Cc2ccccc2)NC(=O)C(NC(=O)C(Cc2ccc(OCc3ccccc3)cc2)NC(=O)OCc2ccccc2)CCNC1=O (centres undefined) (Cbz-Y(Bn)[Dab]FFL; lactam 2-C; configuration not given here)
GI50 [2]: > 100 µM (inactive) | GI50 [3]: > 100 µM (inactive) | GI50 [4]: > 100 µM (inactive) | GI50 [5]: > 100 µM (inactive) | GI50 [6]: > 100 µM (inactive) | GI50 [7]: 29.4 µM (inactive) | GI50 [8]: 63.1 µM (inactive) | GI50 [9]: > 100 µM (inactive) | GI50 [10]: > 100 µM (inactive) | GI50 [11]: 78.5 µM (inactive) | GI50 [12]: > 100 µM (inactive) | GI50 [13]: 40.2 µM (inactive) | GI50 [14]: > 100 µM (inactive) | GI50 [15]: 64.7 µM (inactive) | GI50 [16]: > 100 µM (inactive) | GI50 [17]: 30.4 µM (inactive) | GI50 [18]: > 100 µM (inactive) | GI50 [19]: > 100 µM (inactive) | GI50 [20]: > 100 µM (inactive) | GI50 [21]: > 100 µM (inactive) | GI50 [22]: 18.6 µM (inactive) | GI50 [23]: 23 µM (inactive) | GI50 [24]: 41.3 µM | GI50 [26]: > 100 µM (inactive) | GI50 [27]: 8.47 µM (inactive) | GI50 [29]: > 100 µM (inactive) | GI50 [30]: 16.4 µM (inactive) | GI50 [31]: 20.4 µM (inactive) | GI50 [32]: 36.1 µM (inactive) | GI50 [33]: > 100 µM (inactive) | GI50 [34]: > 100 µM (inactive) | GI50 [35]: 76.4 µM (inactive) | GI50 [36]: 32.6 µM (inactive) | GI50 [37]: > 100 µM (inactive) | GI50 [38]: > 100 µM (inactive) | GI50 [39]: 87.1 µM (inactive) | GI50 [40]: > 100 µM (inactive) | GI50 [41]: 32.1 µM (inactive) | GI50 [42]: 74.3 µM (inactive) | GI50 [43]: 35.1 µM (inactive) | GI50 [57]: > 100 µM (inactive) | GI50 [45]: 14.6 µM (inactive) | GI50 [46]: 38.8 µM (inactive) | GI50 [47]: > 100 µM (inactive) | GI50 [48]: 68.2 µM (inactive) | GI50 [49]: 47.2 µM (inactive) | GI50 [50]: > 100 µM (inactive) | GI50 [58]: > 100 µM (inactive) | GI50 [51]: > 100 µM (inactive) | GI50 [53]: > 100 µM (inactive) | GI50 [54]: 33.7 µM (inactive) | GI50 [55]: > 100 µM (inactive) | GI50 [56]: 41.1 µM (inactive)
